Experiments:
[1] = tested on: db/db mice; test: PBA and leptin co-administration in db/db mice; type: in vivo; conditions: for body weight / food consumption / food intake: PBA 1 g/kg/day oral and/or leptin 1 mg/kg IP, 16 days
Protocol: Six-week old db/db mice were orally treated with either PBA (1 g/kg/day) or VEH for four days. Following the pretreatment period, leptin receptor-deficient db/db mice were either administered with VEH or leptin (1 mg/kg) through intraperitoneal route for 16 days. (a) Bodyweight (g), (b) percent increase in bodyweight and (c) 24-hour food intake, (d) Blood glucose (mg/dl) levels of the groups. (n=5 in each group). Error bars are ±S.E.M., P values are determined by Student's t-test. (*p<0.05, **p<0.01, ***p<0.001).
We investigated whether the effect created by PBA and leptin combinatory treatment is solely mediated through the LepRb and not due to a non-specific effect. First, we pretreated db/db mice with PBA or vehicle for four days and subsequently initiated the leptin (1 mg/kg) treatment.

[2] = tested on: ob/ob mice; test: TUDCA pretreatment and leptin in ob/ob mice (bodyweight, metabolic cage, DEXA); type: in vivo
Protocol: (a) Hypothalamic PERK phosphorylation (Thr980) after 21 days of vehicle or TUDCA (150 mg/kg/day) treatment. Following a five-day pretreatment with TUDCA (150 mg/kg/day) or vehicle, nine-ten week old ob/ob mice were treated either with leptin (1 mg/kg/day) or vehicle. (b) Body weight (g), (c) % decrease in body weight, (d) daily food intake of the ob/ob mice during 18 days of treatment period with the indicated regimens. (e) Blood glucose (mg/dl) levels at the 18th day of treatment. Metabolic cage studies were performed; (f) CO2 production (ml/kg/hr), (g) O2 consumption (ml/kg/hr), (h) Respiratory exchange ratio (VCO2/VO2), (i) X-axis ambulatory activity, (j) Heat generation (kcal/hr). Dexa scan analysis of (k) total fat amount (g), (l) fat % and (m) lean body mass (g). C57BL/6 male wt mice were kept on HFD feeding for 32 weeks and following a five day acclimation period were pretreated with TUDCA (150 mg/kg/day) for five days. At the end of pretreatment period intraperitoneal vehicle and leptin (1 mg/kg/day) treatments were started. (n) Body weight (g), (o) % decrease in bodyweight of the HFD-fed mice during the 16-day treatment. (n=6 for VEH, n=7 for Lep, n=7 for TUD, n=8 for TUD+Lep group). Error bars are ±S.E.M., P values are determined by Student's t-test. (*p<0.05, **p<0.01, ***p<0.001)
If the postulate that reduction of ER stress in the hypothalamus increases leptin sensitivity is true, chemical chaperones other than PBA should also create the same effect and sensitize the obese mice to leptin. TUDCA is a hydrophilic bile acid, which has a completely different structure than PBA, but has chemical chaperone activity in common^25. First, we investigated whether TUDCA can reduce ER stress in the hypothalamus of the ob/ob mice. For this purpose we treated ob/ob mice either with vehicle or TUDCA (150 mg/kg/day) for a period of 21 days and analyzed the hypothalamic PERK phosphorylation. […] To address this question we first pretreated the ob/ob mice with TUDCA (150 mg/kg/day) for 5 days and subsequently initiated leptin (1 mg/kg) treatment. […] Body weight of the ob/ob mice decreased further with leptin and TUDCA co-treatment and reached to 34.39±1.30 g from 50.55±1.14 g (Lep vs. TUD+Lep, p<0.001). […] Furthermore, to investigate the metabolic homeostasis in more detail, we placed the mice in metabolic cages. […] Heat generation was the same between the groups (FIG. 5j). Next, we analyzed the whole body fat composition by DEXA scan. […] Finally, analysis of lean mass has shown that none of the treatments lead to a significant change in this parameter ([…]). We additionally investigated the effect of TUDCA and leptin co-treatment on C57BL/6 wt-lean mice.
We next tested the efficacy of TUDCA as a leptin sensitizer in the HFD-induced obesity model. In this experiment we used 35 weeks old and C57BL/6 wt mice, which were kept on HFD-feeding for 32 weeks. We divided the mice into two groups for TUDCA and TUDCA-leptin co-treatment. Body weight of the mice in this cohort was between 35-52 g. We specifically chose the mice with the highest bodyweight for TUDCA and leptin co-treatment group to investigate whether leptin will become effective in these severely obese mice when administered along with the TUDCA. The initial body weight of the TUDCA group was 38.33±1.16 (g) and TUDCA+leptin group was 48.46±1.82 (g) (FIG. 5n). […]

Compound	body weight [1]	food consumption / food intake [1]	blood glucose levels ([1]; PBA 1 g/kg/day oral vs vehicle)	blood glucose levels ([2]; 18th day of treatment, TUDCA 150 mg/kg/day, leptin 1 mg/kg/day)	body weight ([2]; TUDCA 150 mg/kg/day alone)	initial body weight ([2]; before leptin 1 mg/kg, with or without TUDCA 150 mg/kg/day) [g]	percent decrease from the initial body weight ([2]; leptin 1 mg/kg/day, 18 days, with or without TUDCA 150 mg/kg/day) [%]	body weight after treatment ([2]; leptin 1 mg/kg/day, 18 days, with or without TUDCA 150 mg/kg/day (5 days pretreatment)) [g]
O=C(O)CCCc1ccccc1 [PBA, 4-phenyl butyric acid]	significantly gained weight	no difference	reduced to a significantly lower level	–	–	–	–	–
C[C@H](CCC(=O)NCCS(=O)(=O)O)[C@H]1CC[C@H]2[C@@H]3[C@@H](O)C[C@@H]4C[C@H](O)CC[C@]4(C)[C@H]3CC[C@]12C [TUDCA, tauroursodeoxycholic acid]	–	–	–	lowered	did not decrease	–	–	–
leptin: adipocyte-derived hormone that suppresses appetite	did not decrease	did not decrease	–	–	–	50.50 ± 0.55	9.27±1.34	43.75 ± 0.22

Source: US9283277B2, “Methods and compositions for the treatment of obesity” (Children's Medical Center Corporation, priority 2008, dated 2016)
